The source of these data is US11485742B2, “2-azaspiro[3.4]octane derivatives as M4 agonists” (NOVARTIS AG, priority 2019, dated 2022).

Usually EC50 stands for the concentration that produces a half-maximal response.

What all share (assay type): cell-based
Assay [1] has as its target T1, Cloned human M1 receptor (CHRM1) (Homo sapiens, UniProt P11229).
T1 construct: expressed in transfected cells; host or cells: HEK293
T1 sequence (P11229 1-460): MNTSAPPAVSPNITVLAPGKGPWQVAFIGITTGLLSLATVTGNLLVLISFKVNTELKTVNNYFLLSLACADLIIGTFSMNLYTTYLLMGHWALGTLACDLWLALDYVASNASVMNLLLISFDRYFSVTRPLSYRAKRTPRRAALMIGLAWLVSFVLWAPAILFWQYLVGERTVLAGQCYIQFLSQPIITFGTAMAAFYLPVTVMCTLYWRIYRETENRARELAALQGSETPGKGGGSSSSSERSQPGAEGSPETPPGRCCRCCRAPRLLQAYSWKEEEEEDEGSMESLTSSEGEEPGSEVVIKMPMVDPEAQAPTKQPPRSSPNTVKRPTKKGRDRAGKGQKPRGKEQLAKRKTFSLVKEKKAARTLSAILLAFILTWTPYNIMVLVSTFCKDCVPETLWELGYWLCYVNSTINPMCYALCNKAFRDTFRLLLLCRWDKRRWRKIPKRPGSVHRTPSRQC
Briefly: CHRM1 Ca++ Flux Assay (HEK293 M1 cells, agonist mode). The following applies: for Emax: read-out: M1 FDSS PA %; for EC50: geometric mean if tested more than once, read-out: M1 FDSS EC50. In outline: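 HEK293 cells stably expressing human M1 were loaded with Ca++ dye, then given compounds (11-point dose, triplicate) in HBSS −Ca/−Mg, 20 mM HEPES. Ca++ flux was read over 3 min (agonist mode). Four-parameter curves were fitted, with activity as percent of carbachol EC100.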

Assay [2] has as its target T2, human cloned CHRM3 receptor (Homo sapiens, UniProt P20309).
T2 construct: expressed in transfected cells; host or cells: CHO-K1 (M3_CHO)
Kind of assay: CHRM3 Ca++ Flux Assay (M3_CHO cells, agonist mode). The following applies: for Emax: read-out: M3 FDSS PA %; for EC50: agonist mode, geometric mean if tested more than once, read-out: M3 FDSS EC50. In outline:
(§1)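 CHO-K1 cells stably expressing human M3 or M5 receptor, dye-loaded ≥1 h, treated with 11-point compound doses in triplicate; Ca++ flux read over 3 min (FDSS). Agonist-mode four-parameter fit; percent activity relative to carbachol EC100; repeat tests reported as geometric mean.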

Assay [3] has as its target T3, human cloned CHRM5 receptor (Homo sapiens, UniProt P08912).
T3 construct: expressed in transfected cells; host or cells: CHO (M5_CHO)
T3 sequence (P08912 1-532): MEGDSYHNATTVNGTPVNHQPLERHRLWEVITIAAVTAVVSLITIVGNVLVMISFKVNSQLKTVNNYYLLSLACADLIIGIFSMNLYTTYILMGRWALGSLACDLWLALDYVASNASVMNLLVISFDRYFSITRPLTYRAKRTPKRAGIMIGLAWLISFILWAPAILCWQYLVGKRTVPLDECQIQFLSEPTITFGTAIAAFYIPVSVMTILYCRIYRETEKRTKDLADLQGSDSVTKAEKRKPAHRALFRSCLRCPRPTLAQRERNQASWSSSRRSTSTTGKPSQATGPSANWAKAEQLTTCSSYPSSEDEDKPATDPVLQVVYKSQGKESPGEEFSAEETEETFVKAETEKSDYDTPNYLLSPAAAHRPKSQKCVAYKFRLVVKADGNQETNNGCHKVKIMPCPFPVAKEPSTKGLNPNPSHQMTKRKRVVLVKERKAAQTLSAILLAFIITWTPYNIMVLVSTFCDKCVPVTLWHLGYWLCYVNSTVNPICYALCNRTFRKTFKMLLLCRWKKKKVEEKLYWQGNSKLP
Kind of assay: CHRM5 Ca++ Flux Assay (M5_CHO cells, agonist mode). The conditions noted are these: for Emax: read-out: M5 FDSS PA %; for EC50: agonist mode, geometric mean if tested more than once, read-out: M5 FDSS EC50. The gist of the method: as §1

[4] abbreviates: Percent Activity (PA) measured to EC100 of Carbachol.

T2 sequence (P20309 whole entry): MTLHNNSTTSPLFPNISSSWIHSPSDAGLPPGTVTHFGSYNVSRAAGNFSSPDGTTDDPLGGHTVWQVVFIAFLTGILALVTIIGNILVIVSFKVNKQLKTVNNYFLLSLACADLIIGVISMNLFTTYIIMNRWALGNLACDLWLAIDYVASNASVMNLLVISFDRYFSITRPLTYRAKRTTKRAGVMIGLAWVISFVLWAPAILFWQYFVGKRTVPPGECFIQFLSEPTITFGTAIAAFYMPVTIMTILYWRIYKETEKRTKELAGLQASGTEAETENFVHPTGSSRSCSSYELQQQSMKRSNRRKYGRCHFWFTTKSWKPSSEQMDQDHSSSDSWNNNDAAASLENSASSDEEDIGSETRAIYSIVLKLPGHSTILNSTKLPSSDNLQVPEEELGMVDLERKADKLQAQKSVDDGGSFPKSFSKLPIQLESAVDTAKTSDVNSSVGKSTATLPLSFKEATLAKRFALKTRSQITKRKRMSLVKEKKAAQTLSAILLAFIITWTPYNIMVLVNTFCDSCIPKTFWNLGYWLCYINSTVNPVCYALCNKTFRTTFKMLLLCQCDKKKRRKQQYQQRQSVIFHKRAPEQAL

Take `Fc1ccc(OC[C@@H]2COCCO2)c(C2CCN([C@@H]3COC4(C3)CN(c3nnco3)C4)CC2)c1` [Example 1F, (S)-7-(4-(2-(((S)-1,4-dioxan-2-yl)methoxy)-5-fluorophenyl)piperidin-1-yl)-2-(1,3,4-oxadiazol-2-yl)-5-oxa-2-azaspiro[3.4]octane]: the Emax worked out at 83% in assay [1] (Percent Activity (PA)), 0% in assay [2] (setting [4]) and 0% in assay [3] (setting [4]). Moreover, the half-maximal effective concentration (EC50) in assay [1] was 0.368 µM; in assay [2], over 25 µM; in assay [3], over 25 µM.
Consider `COc1ccccc1C1CCN([C@@H]2COC3(C2)CN(c2nncs2)C3)CC1` [Example 5R, (S)-7-(4-(2-methoxyphenyl)piperidin-1-yl)-2-(1,3,4-thiadiazol-2-yl)-5-oxa-2-azaspiro[3.4]octane], for which the Emax in assay [1] (Percent Activity (PA)) stood at 52%; in assay [2] (setting [4]), 0%; in assay [3] (setting [4]) it was 0%. Moreover, the EC50 in assay [1] is 0.904 µM; in assay [2], over 25 µM; in assay [3] it was over 25 µM.
`c1ccc(C2CCN([C@@H]3COC4(C3)CN(c3nnco3)C4)CC2)c(C2CCOCC2)c1` [Example 3C, (S)-2-(1,3,4-oxadiazol-2-yl)-7-(4-(2-(tetrahydro-2H-pyran-4-yl)phenyl)piperidin-1-yl)-5-oxa-2-azaspiro[3.4]octane]: the results for the Emax in assay [1] (Percent Activity (PA)), in assay [2] (setting [4]) and in assay [3] (setting [4]) were 78%, 0% and 0%, respectively. Besides, the 50% effective concentration (EC50) in assay [1] was 3.89 µM; in assay [2] it was over 25 µM; in assay [3], over 25 µM.
Turning to `COc1ccc(F)cc1C1CCN([C@@H]2COC3(C2)CN(c2ncco2)C3)CC1` [Example 4I, (S)-7-(4-(5-fluoro-2-methoxyphenyl)piperidin-1-yl)-2-(oxazol-2-yl)-5-oxa-2-azaspiro[3.4]octane], the Emax came to 82% in assay [1] (Percent Activity (PA)), 0% in assay [2] (setting [4]) and 0% in assay [3] (setting [4]). Also, the EC50 in assay [1] is 0.227 µM; in assay [2] it was over 25 µM; in assay [3] it was over 25 µM.
Take `Fc1ccc(OC[C@H]2COCCO2)c(C2CCN([C@@H]3COC4(C3)CN(c3nnco3)C4)CC2)c1` [Example 1C]: the Emax in assay [1] (Percent Activity (PA)) turned out to be 72%; in assay [2] (setting [4]) it was 0%; in assay [3] (setting [4]) it was 0%. Moreover, the EC50 is 0.576 µM in assay [1], over 25 µM in assay [2] and over 25 µM in assay [3].
With `Fc1ccc(OC2CC3(COC3)C2)c(C2CCN([C@@H]3COC4(C3)CN(c3ncco3)C4)CC2)c1` [Example 4G, (S)-7-(4-(2-((2-oxaspiro[3.3]heptan-6-yl)oxy)-5-fluorophenyl)piperidin-1-yl)-2-(oxazol-2-yl)-5-oxa-2-azaspiro[3.4]octane], the figures for the Emax in assay [1] (Percent Activity (PA)), in assay [2] (setting [4]) and in assay [3] (setting [4]) were 62%, 0% and 0%, respectively. Moreover, the EC50 was 1.76 µM in assay [1], over 25 µM in assay [2] and over 25 µM in assay [3].
With `c1ccc([C@@H]2CCOC2)c(C2CCN([C@@H]3COC4(C3)CN(c3nnco3)C4)CC2)c1` (single isomer, unassigned) [Example 3A, (S)-2-(1,3,4-oxadiazol-2-yl)-7-(4-(2-((S)-tetrahydrofuran-3-yl)phenyl)piperidin-1-yl)-5-oxa-2-azaspiro[3.4]octane or (S)-2-(1,3,4-oxadiazol-2-yl)-7-(4-(2-((R)-tetrahydrofuran-3-yl)phenyl)piperidin-1-yl)-5-oxa-2-azaspiro[3.4]octane], the “M1 FDSS PA %” value in assay [1] (Percent Activity (PA)) is 85%. In addition, the figures for the EC50 in assay [1], in assay [2] and in assay [3] were 1.11 µM, over 25 µM and over 25 µM, respectively. The “M3 FDSS PA %” value in assay [2] (setting [4]) is on record as 0%. Further, in assay [3] (setting [4]), the “M5 FDSS PA %” value is reported as 0%.
